Assay results reported in PubChem BioAssay (NCI).
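In this assay, cells in 96-well plates receive the compound at five concentrations for 48 hours. Endpoints are linearly interpolated between the surrounding concentrations. At the GI50, growth is halved. Definition used: TGI = concentration required for complete inhibition of growth.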

Columns and labels:
Assay in all cases: NCI tumour cell line growth inhibition, 48 h
OVCAR-3 ovarian = tested on: OVCAR-3 ovarian
HCT-116 colon = tested on: HCT-116 colon
ACHN renal = tested on: ACHN renal
DU-145 prostate = tested on: DU-145 prostate
SW-620 colon = tested on: SW-620 colon
MALME-3M melanoma = tested on: MALME-3M melanoma
IGROV1 ovarian = tested on: IGROV1 ovarian
UACC-62 melanoma = tested on: UACC-62 melanoma
A549 NSCLC = tested on: A549 NSCLC
UACC-257 melanoma = tested on: UACC-257 melanoma
NCI-H522 lung = tested on: NCI-H522 lung
U251 CNS = tested on: U251 CNS
A498 renal = tested on: A498 renal
SR leukemia = tested on: SR leukemia
OVCAR-4 ovarian = tested on: OVCAR-4 ovarian
RXF 393 renal = tested on: RXF 393 renal
HCC-2998 colon = tested on: HCC-2998 colon
EKVX NSCLC = tested on: EKVX NSCLC
M14 melanoma = tested on: M14 melanoma
HOP-62 NSCLC = tested on: HOP-62 NSCLC
SF-268 CNS = tested on: SF-268 CNS
OVCAR-5 ovarian = tested on: OVCAR-5 ovarian
SK-MEL-2 melanoma = tested on: SK-MEL-2 melanoma
HOP-92 NSCLC = tested on: HOP-92 NSCLC
SK-MEL-28 melanoma = tested on: SK-MEL-28 melanoma
SF-295 CNS = tested on: SF-295 CNS
HS 578T breast = tested on: HS 578T breast
BT-549 breast = tested on: BT-549 breast
MOLT-4 leukemia = tested on: MOLT-4 leukemia
CCRF-CEM leukemia = tested on: CCRF-CEM leukemia
NCI-H226 lung = tested on: NCI-H226 lung
SK-MEL-5 melanoma = tested on: SK-MEL-5 melanoma
786-0 renal = tested on: 786-0 renal
SF-539 CNS = tested on: SF-539 CNS
MDA-MB-468 breast = tested on: MDA-MB-468 breast
OVCAR-8 ovarian = tested on: OVCAR-8 ovarian
HL-60(TB) leukemia = tested on: HL-60(TB) leukemia
LOX IMVI melanoma = tested on: LOX IMVI melanoma
MCF7 breast = tested on: MCF7 breast
K-562 leukemia = tested on: K-562 leukemia
MDA-MB-435 = tested on: MDA-MB-435
HCT-15 colon = tested on: HCT-15 colon
RPMI-8226 leukemia = tested on: RPMI-8226 leukemia
MDA-MB-231 breast = tested on: MDA-MB-231 breast
NCI-H23 lung = tested on: NCI-H23 lung
SK-OV-3 ovarian = tested on: SK-OV-3 ovarian
COLO 205 colon = tested on: COLO 205 colon
PC-3 prostate = tested on: PC-3 prostate
NCI/ADR-RES ovarian = tested on: NCI/ADR-RES ovarian
SNB-19 CNS = tested on: SNB-19 CNS
KM12 colon = tested on: KM12 colon
UO-31 renal = tested on: UO-31 renal
NCI-H460 lung = tested on: NCI-H460 lung
SNB-75 CNS = tested on: SNB-75 CNS
TK-10 renal = tested on: TK-10 renal
SN12C renal = tested on: SN12C renal
CAKI-1 renal = tested on: CAKI-1 renal
HT29 colon = tested on: HT29 colon

O=C1NC(=S)S/C1=C\c1cn(-c2ccccc2)nc1-c1ccc([N+](=O)[O-])cc1
GI50 (OVCAR-3 ovarian): 2.95 µM
TGI (OVCAR-3 ovarian): 12.4 µM
GI50 (HCT-116 colon): 2.71 µM
TGI (HCT-116 colon): 10.9 µM
GI50 (ACHN renal): 3.04 µM
TGI (ACHN renal): 13.4 µM
GI50 (DU-145 prostate): 3.63 µM
TGI (DU-145 prostate): > 100 µM
GI50 (SW-620 colon): 3.27 µM
TGI (SW-620 colon): > 100 µM
GI50 (MALME-3M melanoma): 1.96 µM
TGI (MALME-3M melanoma): 6.4 µM
GI50 (IGROV1 ovarian): 3.4 µM
TGI (IGROV1 ovarian): 14.8 µM
GI50 (UACC-62 melanoma): 1.23 µM
TGI (UACC-62 melanoma): 3.18 µM
GI50 (A549 NSCLC): 3.16 µM
TGI (A549 NSCLC): 25.3 µM
GI50 (UACC-257 melanoma): 2.43 µM
TGI (UACC-257 melanoma): 7.67 µM
GI50 (NCI-H522 lung): 2.39 µM
TGI (NCI-H522 lung): 18.7 µM
GI50 (U251 CNS): 2.94 µM
TGI (U251 CNS): 11 µM
GI50 (A498 renal): 2.68 µM
TGI (A498 renal): 8.93 µM
GI50 (SR leukemia): 4.3 µM
TGI (SR leukemia): > 100 µM
GI50 (OVCAR-4 ovarian): 2.6 µM
TGI (OVCAR-4 ovarian): 16.4 µM
GI50 (RXF 393 renal): 3.2 µM
TGI (RXF 393 renal): 8.61 µM
GI50 (HCC-2998 colon): 2.88 µM
TGI (HCC-2998 colon): 12.6 µM
GI50 (EKVX NSCLC): 2.6 µM
TGI (EKVX NSCLC): 10.4 µM
GI50 (M14 melanoma): 3.4 µM
TGI (M14 melanoma): 14.2 µM
GI50 (HOP-62 NSCLC): 3.45 µM
TGI (HOP-62 NSCLC): 16.5 µM
GI50 (SF-268 CNS): 3.01 µM
TGI (SF-268 CNS): > 100 µM
GI50 (OVCAR-5 ovarian): 5.53 µM
TGI (OVCAR-5 ovarian): 26.7 µM
GI50 (SK-MEL-2 melanoma): 2.42 µM
TGI (SK-MEL-2 melanoma): 7.46 µM
GI50 (HOP-92 NSCLC): 2.73 µM
TGI (HOP-92 NSCLC): 8.64 µM
GI50 (SK-MEL-28 melanoma): 2.68 µM
TGI (SK-MEL-28 melanoma): 9.82 µM
GI50 (SF-295 CNS): 2.39 µM
TGI (SF-295 CNS): 11.2 µM
GI50 (HS 578T breast): 2.56 µM
TGI (HS 578T breast): 9.27 µM
GI50 (BT-549 breast): 2.15 µM
TGI (BT-549 breast): 6.51 µM
GI50 (MOLT-4 leukemia): 2.89 µM
TGI (MOLT-4 leukemia): > 100 µM
GI50 (CCRF-CEM leukemia): 2.33 µM
TGI (CCRF-CEM leukemia): > 100 µM
GI50 (NCI-H226 lung): 2.49 µM
TGI (NCI-H226 lung): 12.1 µM
GI50 (SK-MEL-5 melanoma): 1.34 µM
TGI (SK-MEL-5 melanoma): 3.3 µM
GI50 (786-0 renal): 3.49 µM
TGI (786-0 renal): 13.5 µM
GI50 (SF-539 CNS): 3.45 µM
TGI (SF-539 CNS): 13.8 µM
GI50 (MDA-MB-468 breast): 1.9 µM
TGI (MDA-MB-468 breast): 10.8 µM
GI50 (OVCAR-8 ovarian): 3.68 µM
TGI (OVCAR-8 ovarian): 23.4 µM
GI50 (HL-60(TB) leukemia): 2.78 µM
TGI (HL-60(TB) leukemia): 21.2 µM
GI50 (LOX IMVI melanoma): 3.22 µM
TGI (LOX IMVI melanoma): 12.8 µM
GI50 (MCF7 breast): 2.74 µM
TGI (MCF7 breast): > 100 µM
GI50 (K-562 leukemia): 2.53 µM
TGI (K-562 leukemia): > 100 µM
GI50 (MDA-MB-435): 2.86 µM
TGI (MDA-MB-435): 11.7 µM
GI50 (HCT-15 colon): 2.1 µM
TGI (HCT-15 colon): 12.9 µM
GI50 (RPMI-8226 leukemia): 2.66 µM
TGI (RPMI-8226 leukemia): > 100 µM
GI50 (MDA-MB-231 breast): 4.17 µM
TGI (MDA-MB-231 breast): 16.9 µM
GI50 (NCI-H23 lung): 2.19 µM
TGI (NCI-H23 lung): 8.15 µM
GI50 (SK-OV-3 ovarian): 3.33 µM
TGI (SK-OV-3 ovarian): 12.9 µM
GI50 (COLO 205 colon): 3.5 µM
TGI (COLO 205 colon): 17.6 µM
GI50 (PC-3 prostate): 2.71 µM
TGI (PC-3 prostate): > 100 µM
GI50 (NCI/ADR-RES ovarian): 2.83 µM
TGI (NCI/ADR-RES ovarian): 12.3 µM
GI50 (SNB-19 CNS): 3.46 µM
TGI (SNB-19 CNS): 23.2 µM
GI50 (KM12 colon): 3.34 µM
TGI (KM12 colon): 15.4 µM
GI50 (UO-31 renal): 2.5 µM
TGI (UO-31 renal): 11.9 µM
GI50 (NCI-H460 lung): 2.05 µM
TGI (NCI-H460 lung): 5.8 µM
GI50 (SNB-75 CNS): 1.83 µM
TGI (SNB-75 CNS): 11.5 µM
GI50 (TK-10 renal): 3.81 µM
TGI (TK-10 renal): > 100 µM
GI50 (SN12C renal): 2.53 µM
TGI (SN12C renal): 15.2 µM
GI50 (CAKI-1 renal): 3.04 µM
TGI (CAKI-1 renal): 13.5 µM
GI50 (HT29 colon): 3.86 µM
TGI (HT29 colon): 89.5 µM
